Broadly, the IC50 is the midpoint of a concentration-inhibition curve.

One assay concerns the target SARS-CoV-2 Papain-Like Protease (PLpro) (Severe acute respiratory syndrome coronavirus 2 (2019-nCoV) (SARS-CoV-2), UniProt P0DTD1). Briefly: biochemical. As to conditions: PLpro IC50, SARS-CoV-2 PLpro enzymatic fluorescence assay.
Take `Cc1cc2c(CCN)c[nH]c2cc1C(=O)NC1(c2cccc3ccccc23)CC1` [Compound 292, 3-(2-Aminoethyl)-5-methyl-N-(1-(naphthalen-1-yl)cyclopropyl)-1H-indole-6-carboxamide]: the IC50 lay in the range of 100 to 1000 nM.

Still in this assay, the particulars now being: PLpro enzymatic fluorescence assay; class symbols; read-out: PLpro IC50.
With `COc1ccccc1C1(NC(=O)c2cc(OCCN(C)C)ccc2C)CC1` [Compound 277, 5-(2-(Dimethylamino)ethoxy)-N-(1-(2-methoxyphenyl)cyclopropyl)-2-methylbenzamide], the IC50 was over 5000 nM.

Take `COc1cccc(C2(NC(=O)c3cc(OCCN(C)C)ccc3C)CC2)c1` [Compound 278, 5-(2-(Dimethylamino)ethoxy)-N-(1-(3-methoxyphenyl)cyclopropyl)-2-methylbenzamide]: the 50% inhibitory concentration (IC50) was over 5000 nM.

Staying with this assay, now noted: SARS-CoV-2 PLpro enzymatic fluorescence assay; read-out: PLpro IC50.
Consider `CN(C)CCOc1ccc(Br)c(C(=O)NC2(c3cccc4ccccc34)CC2)c1` [Compound 269, 2-Bromo-5-(2-(dimethylamino)ethoxy)-N-(1-(naphthalen-1-yl)cyclopropyl)benzamide], for which the IC50 fell in the range of 100 to 1000 nM. Turning to `Cc1ccc(OCCN(C)C)cc1C(=O)NC1(c2cccc(Oc3ccccc3)c2)CC1` [Compound 270, 5-(2-(Dimethylamino)ethoxy)-2-methyl-N-(1-(3-phenoxyphenyl)cyclopropyl)benzamide], the IC50 is over 5000 nM. Consider `COc1ccc(C2(NC(=O)c3cc(OCCN(C)C)ccc3C)CC2)cc1` [Compound 271, 5-(2-(Dimethylamino)ethoxy)-N-(1-(4-methoxyphenyl)cyclopropyl)-2-methylbenzamide], for which the IC50 is over 5000 nM.

`Cc1ccc(OCCN(C)C)cc1C(=O)NC1(c2ccccc2F)CC1` [Compound 272, 5-(2-(Dimethylamino)ethoxy)-N-(1-(2-fluorophenyl)cyclopropyl)-2-methylbenzamide]: the half-inhibitory concentration (IC50) is over 5000 nM.

On to `Cc1cc2cc(C(C)N)[nH]c2cc1C(=O)NC1(c2cccc3ccccc23)CC1` (centres unmarked) [Compound 273, 2-(1-Aminoethyl)-5-methyl-N-(1-(naphthalen-1-yl)cyclopropyl)-1H-indole-6-carboxamide], for which the 50% inhibitory concentration (IC50) was under 100 nM. On to `Cc1ccc(OCC2CCN2)cc1C(=O)NC1(c2cccc3ccccc23)CC1` (centres unmarked) [Compound 274, 5-(Azetidin-2-ylmethoxy)-2-methyl-N-(1-(naphthalen-1-yl)cyclopropyl)benzamide], for which the half-inhibitory concentration (IC50) is under 100 nM. In the case of `Cc1ncc(OCCN(C)C)cc1C(=O)NC1(c2cccc3ccccc23)CC1` [Compound 275, 5-(2-(Dimethylamino)ethoxy)-2-methyl-N-(1-(naphthalen-1-yl)cyclopropyl)nicotinamide], the IC50 lay in the range of 1000 to 5000 nM. Still for that read-out and setting: next, `Cc1ccc(OCCN(C)C)cc1C(=O)NC1(c2cccc(C3CCCC3)c2)CC1` [Compound 276, N-(1-(3-Cyclopentylphenyl)cyclopropyl)-5-(2-(dimethylamino)ethoxy)-2-methylbenzamide]: over 5000 nM; `Cc1ccc(OCCN(C)C)cc1C(=O)NC1(c2ccc(Oc3ccccc3)cc2)CC1` [Compound 279, 5-(2-(Dimethylamino)ethoxy)-2-methyl-N-(1-(4-phenoxyphenyl)cyclopropyl)benzamide]: 1000 to 5000 nM; `Cc1cc2nc(CN)[nH]c2cc1C(=O)NC1(c2cccc3ccccc23)CC1` [Compound 280, 2-(Aminomethyl)-5-methyl-N-(1-(naphthalen-1-yl)cyclopropyl)-1H-benzo[d]imidazole-6-carboxamide]: 100 to 1000 nM. The same measure, in the same setting: with `Cc1cc2cc(CN)[nH]c2cc1C(=O)NC(C)(C)c1cccc2ccccc12` [Compound 281] the figure was over 5000 nM; with `Cc1ccc(OCCN(C)C)cc1C(=O)NC1(c2ccccc2C)CC1` [Compound 282, 5-(2-(Dimethylamino)ethoxy)-2-methyl-N-(1-(o-tolyl)cyclopropyl)benzamide], 1000 to 5000 nM; with `Cc1ccc(OCC2CCCN2C)cc1C(=O)NC1(c2cccc3ccccc23)CC1` (centres unmarked) [Compound 283, 2-Methyl-5-((1-methylpyrrolidin-2-yl)methoxy)-N-(1-(naphthalen-1-yl)cyclopropyl)benzamide], under 100 nM.

Regarding `Cc1ccc(OCCN2CCC(F)(F)CC2)cc1C(=O)NC1(c2cccc3ccccc23)CC1` [Compound 284, 5-(2-(4,4-Difluoropiperidin-1-yl)ethoxy)-2-methyl-N-(1-(naphthalen-1-yl)cyclopropyl)benzamide], the concentration for half-maximal inhibition (IC50) was in the range of 100 to 1000 nM. On to `Cc1ccc(OCC(N)=O)cc1C(=O)NC1(c2cccc3ccccc23)CC1` [Compound 285, 5-(2-Amino-2-oxoethoxy)-2-methyl-N-(1-(naphthalen-1-yl)cyclopropyl)benzamide], for which the IC50 lay within 100 to 1000 nM.

For the molecule `Cc1ccc(OCC2COCCN2)cc1C(=O)NC1(c2cccc3ccccc23)CC1` (centres unmarked) [Compound 286, 2-Methyl-5-(morpholin-3-ylmethoxy)-N-(1-(naphthalen-1-yl)cyclopropyl)benzamide], the 50% inhibitory concentration (IC50) is under 100 nM. Take `Cc1ccc(OCC2CCCCN2C)cc1C(=O)NC1(c2cccc3ccccc23)CC1` (centres unmarked) [Compound 288, 2-Methyl-5-((1-methylpiperidin-2-yl)methoxy)-N-(1-(naphthalen-1-yl)cyclopropyl)benzamide]: the IC50 lay within 100 to 1000 nM.

For the molecule `Cc1ccc(OC2CCCN(C)C2)cc1C(=O)NC1(c2cccc3ccccc23)CC1` (centres unmarked) [Compound 289, 2-Methyl-5-((1-methylpiperidin-3-yl)oxy)-N-(1-(naphthalen-1-yl)cyclopropyl)benzamide], the half-inhibitory concentration (IC50) lay in the range of 100 to 1000 nM.

Regarding `Cc1cc2ccn(C3CN(C)C3)c2cc1C(=O)NC1(c2cccc3ccccc23)CC1` [Compound 290, 5-Methyl-1-(1-methylazetidin-3-yl)-N-(1-(naphthalen-1-yl)cyclopropyl)-1H-indole-6-carboxamide], the IC50 is under 100 nM.

For `Cc1ccc(OCCN(C)C)cc1C(=O)NC1(c2cccc(-c3ccccc3)c2)CC1` [Compound 291, N-(1-([1,1′-Biphenyl]-3-yl)cyclopropyl)-5-(2-(dimethylamino)ethoxy)-2-methylbenzamide], the IC50 lay within 100 to 1000 nM.

Consider `Cc1ccc(OC2CCCCN(C)C2)cc1C(=O)NC1(c2cccc3ccccc23)CC1` (centres unmarked) [Compound 293, 2-methyl-5-((1-methylazepan-3-yl)oxy)-N-(1-(naphthalen-1-yl)cyclopropyl)benzamide], for which the IC50 was 100 to 1000 nM. As to `Cc1ccc(OCCN(C)C)cc1C(=O)NC1(c2ccc(O)cc2)CC1` [Compound 294, 5-(2-(Dimethylamino)ethoxy)-N-(1-(4-hydroxyphenyl)cyclopropyl)-2-methylbenzamide], the 50% inhibitory concentration (IC50) was over 5000 nM. For the molecule `Cc1cc2ccn(CC3COC3)c2cc1C(=O)NC1(c2cccc3ccccc23)CC1` [Compound 295, 5-Methyl-N-(1-(naphthalen-1-yl)cyclopropyl)-1-(oxetan-3-ylmethyl)-1H-indole-6-carboxamide], the concentration for half-maximal inhibition (IC50) lay in the range of 100 to 1000 nM. As for `Cc1cc2ccn(C3CCC3)c2cc1C(=O)NC1(c2cccc3ccccc23)CC1` [Compound 296, 1-Cyclobutyl-5-methyl-N-(1-(naphthalen-1-yl)cyclopropyl)-1H-indole-6-carboxamide], the IC50 was 100 to 1000 nM. Same read-out and setting: next, `Cc1cc2c(cc1C(=O)NC1(c3cccc4ccccc34)CC1)NCCN2` [Compound 297, 7-Methyl-N-(1-(naphthalen-1-yl)cyclopropyl)-1,2,3,4-tetrahydroquinoxaline-6-carboxamide]: 100 to 1000 nM; `Cc1ccc(OCCN(C)C)cc1C(=O)NC1(c2ccccc2Oc2ccccc2)CC1` [Compound 298, 5-(2-(Dimethylamino)ethoxy)-2-methyl-N-(1-(2-phenoxyphenyl)cyclopropyl)benzamide]: 1000 to 5000 nM.

The values above are taken from US20250025443A1, “COMPOUNDS AND METHODS FOR TREATING CORONA VIRUSES” (CLEAR CREEK BIO, INC., priority 2021, published 2025).
